Consider 28 molecules from EP2385948B1, “FUSED THIAZOLO AND OXAZOLO PYRIMIDINONES” (Torrent Pharmaceuticals Limited, priority 2009, dated 2011).

Where a name gives a salt, the structure may show the parent alone. Bounds are passed on as bounds.

For the first data set, the system named is adrenomedullin mRNA. Nature of the data set: In vitro induction of adrenomedullin mRNA (real-time PCR, normalized to 18S rRNA). Format: cell-based. Particulars: Hep3B cell line, 200 uM, 6 hours, relative to vehicle control; Disodium salt, 360 min. As for the experimental part: Hep3B cell line (ATCC HB8064) was employed. […] At the end of 6 hours, cells were lysed and total RNA was isolated. Expression of adrenomedullin mRNA along-with expression of 18S rRNA was monitored by real-time PCR. Adrenomedullin mRNA expression was normalized relative to the expression of 18S rRNA. The results were expressed as fold induction of adrenomedullin mRNA relative to vehicle treated control.
For orientation: Real-time PCR tracks product formation cycle by cycle.
`O=C(O)CNC(=O)c1c(O)nc2sc3c(n2c1=O)CCCCC3` [Compound 82, [(2-Hydroxy-4-oxo-6,7,8,9-tetrahydro-4H,5H-10-thia-1,4a-diaza-benzo[a]azulene-3-carbonyl)-amino]-acetic acid, Disodium salt]: the “Adrenomedullin mRNA (fold induction)” value was “+++ (+++ indicates 5-8 fold)”.

The same data set, now with this note: Homo sapiens, Hep3B, 6 h, Hep3B cell line, relative to vehicle control.
On to `O=C(O)CNC(=O)c1c(O)nc2sc3c(n2c1=O)CCN(Cc1ccc(Cl)c(Cl)c1)C3` [Compound 49, {[7-(3,4-Dichloro-benzyl)-2-hydroxy-4-oxo-5,6,7,8-tetrahydro-4H-9-thia-1,4a,7-triaza-fluorene-3-carbonyl]-amino}-acetic acid], for which the fold induction at 200 µM is 5 to 8.

`O=C(O)CNC(=O)c1c(O)nc2sc3c(n2c1=O)CCN(Cc1ccc(C(F)(F)F)cc1)C3` [Compound 52, {[2-Hydroxy-4-oxo-7-(4-trifluoromethyl-benzyl)-5,6,7,8-tetrahydro-4H-9-thia-1,4a,7-triaza-fluorene-3-carbonyl]-amino}-acetic acid] had a fold induction at 200 µM of 5 to 8.

The subject of a further data set is erythropoietin. Nature of the data set: In vitro erythropoietin induction (ELISA of cell culture supernatant). The conditions noted are these: Hep3B cell line, 200 uM, 16 hours, relative to vehicle control. (In general: ELISA stands for enzyme-linked immunosorbent assay.)
Description: Hep3B cell line (ATCC HB8064) was employed. Induction of erythropoietin was carried out for the indicated dose of compounds for 16 hours duration. At the end of 16 hours, cell culture medium was collected and centrifuged to remove any debris. Supernatant obtained was analyzed for erythropoietin by ELISA (R&D systems, USA). The results were expressed as fold induction as compared to vehicle control.
Consider “{[7-(3,5-Dimethoxy-benzoyl)-2-hydroxy-4-oxo-5,6,7,8-tetrahydro-4H-9-thia-1,4a,7-triaza-fluorene-3-carbonyl]-amino}-acetic acid [Compound 41]”, for which the EPO fold induction entry was “++ (++ indicates 2-4 fold)”.

Staying with this data set, now noted: Hep3B cell line, 200 uM, 16 hours, relative to vehicle control; Disodium salt, 960 min.
For `CC1(C)CCc2c(sc3nc(O)c(C(=O)NCC(=O)O)c(=O)n23)C1` [Compound 80, [(2-Hydroxy-7,7-dimethyl-4-oxo-5,6,7,8-tetrahydro-4H-9-thia-1,4a-diaza-fluorene-3-carbonyl)-amino]-acetic acid, Disodium salt], the EPO fold induction result is recorded as “++++ (++++ indicates 9-16fold)”.

The data set is the same for the next values; noted with them: Homo sapiens, Hep3B, 16 h, read-out: EPO fold induction, Hep3B cell line, 12.5 uM, 16 hours, relative to vehicle control.
For `N#Cc1cccnc1N1CCc2c(sc3nc(O)c(C(=O)NCC(=O)O)c(=O)n23)C1` [Compound 36, {[7-(3-Cyano-pyridin-2-yl)-2-hydroxy-4-oxo-5,6,7,8-tetrahydro-4H-9-thia-1,4a,7-triaza-fluorene-3-carbonyl]-amino}-acetic acid], the fold induction at 12.5 µM was under 2.

Still in this data set, the particulars now being: Homo sapiens, Hep3B, 16 h, read-out: EPO fold induction, Hep3B cell line, 50 uM, 16 hours, relative to vehicle control.
In the case of `O=C(O)CNC(=O)c1c(O)nc2sc3c(n2c1=O)CCN(Cc1cc(C(F)(F)F)cc(C(F)(F)F)c1)C3` [Compound 46, {[7-(3,5-Bis-trifluoromethyl-benzyl)-2-hydroxy-4-oxo-5,6,7,8-tetrahydro-4H-9-thia-1,4a,7-triaza-fluorene-3-carbonyl]-amino}-acetic acid], the fold induction at 50 µM was 2 to 4.

As for `O=C(O)CNC(=O)c1c(O)nc2sc3c(n2c1=O)CCCCC3` [Compound 82, [(2-Hydroxy-4-oxo-6,7,8,9-tetrahydro-4H,5H-10-thia-1,4a-diaza-benzo[a]azulene-3-carbonyl)-amino]-acetic acid, Disodium salt], the fold induction at 50 µM was 9 to 16.

Staying with this data set, now noted: Homo sapiens, Hep3B, 16 h, read-out: EPO fold induction, Hep3B cell line, 200 uM, 16 hours, relative to vehicle control.
Turning to `COc1ccc(C(=O)N2CCc3c(sc4nc(O)c(C(=O)NCC(=O)O)c(=O)n34)C2)cc1Cl` [Compound 37, {[7-(3-Chloro-4-methoxy-benzoyl)-2-hydroxy-4-oxo-5,6,7,8-tetrahydro-4H-9-thia-1,4a,7-triaza-fluorene-3-carbonyl]-amino}-acetic acid], the fold induction at 200 µM is 5 to 8.

With `O=C(O)CNC(=O)c1c(O)nc2sc3c(n2c1=O)CCCCCC3` [Compound 38, [(2-Hydroxy-4-oxo-5,6,7,8,9,10-hexahydro-4H-11-thia-1,4a-diaza-cycloocta[a]indene-3-carbonyl)-amino]-acetic acid], the fold induction at 200 µM lay in the range of 9 to 16.

As for `O=C(O)CNC(=O)c1c(O)nc2sc3c(n2c1=O)CCN(Cc1ccc2c(c1)CCC2)C3` [Compound 39, [(2-Hydroxy-7-indan-5-ylmethyl-4-oxo-5,6,7,8-tetrahydro-4H-9-thia-1,4a,7-triaza-fluorene-3-carbonyl)-amino]-acetic acid], the fold induction at 200 µM was in the range of 2 to 4.

For the molecule `CC(NC(=O)c1c(O)nc2sc3c(n2c1=O)CCC(C)(C)C3)C(=O)O` (stereo not shown) [Compound 40, 2-[(2-Hydroxy-7,7-dimethyl-4-oxo-5,6,7,8-tetrahydro-4H-9-thia-1,4a-diaza-fluorene-3-carbonyl)-amino]-propionic acid], the fold induction at 200 µM is 5 to 8.

As for `CS(=O)(=O)c1ccc(C(=O)N2CCc3c(sc4nc(O)c(C(=O)NCC(=O)O)c(=O)n34)C2)cc1` [Compound 42, {[2-Hydroxy-7-(4-methanesulfonyl-benzoyl)-4-oxo-5,6,7,8-tetrahydro-4H-9-thia-1,4a,7-triaza-fluorene-3-carbonyl]-amino}-acetic acid], the fold induction at 200 µM lay within 5 to 8.

Regarding `CC(C)[C@H](NC(=O)c1c(O)nc2sc3c(n2c1=O)CCC(C)(C)C3)C(=O)O` [Compound 43, 2-[(2-Hydroxy-7,7-dimethyl-4-oxo-5,6,7,8-tetrahydro-4H-9-thia-1,4a-diaza-fluorene-3-carbonyl)-amino]-3-methyl-butyric acid (L-isomer)], the fold induction at 200 µM is under 2.

For the molecule `C[C@@H](NC(=O)c1c(O)nc2sc3c(n2c1=O)CCC(C)(C)C3)C(=O)O` [Compound 44, 2-[(2-Hydroxy-7,7-dimethyl-4-oxo-5,6,7,8-tetrahydro-4H-9-thia-1,4a-diaza-fluorene-3-carbonyl)-amino]-propionic acid (D-isomer)], the fold induction at 200 µM was under 2.

In the case of `O=C(O)CNC(=O)c1c(O)nc2sc3c(n2c1=O)CCN(Cc1ccc(Cl)c(Cl)c1)C3` [Compound 49, {[7-(3,4-Dichloro-benzyl)-2-hydroxy-4-oxo-5,6,7,8-tetrahydro-4H-9-thia-1,4a,7-triaza-fluorene-3-carbonyl]-amino}-acetic acid], the fold induction at 200 µM is 5 to 8.

With `O=C(O)CNC(=O)c1c(O)nc2sc3c(n2c1=O)CCN(Cc1ccc(C(F)(F)F)cc1)C3` [Compound 52, {[2-Hydroxy-4-oxo-7-(4-trifluoromethyl-benzyl)-5,6,7,8-tetrahydro-4H-9-thia-1,4a,7-triaza-fluorene-3-carbonyl]-amino}-acetic acid], the fold induction at 200 µM fell in the range of 5 to 8.

Regarding `CCC1(CC)CCc2c(sc3nc(O)c(C(=O)NCC(=O)O)c(=O)n23)C1` [Compound 53, [(7,7-Diethyl-2-hydroxy-4-oxo-5,6,7,8-tetrahydro-4H-9-thia-1,4a-diaza-fluorene-3-carbonyl)-amino]-acetic acid], the fold induction at 200 µM was under 2.

As for `CC1(C)CCc2c(sc3nc(O)c(C(=O)NC(C)(C)C(=O)O)c(=O)n23)C1` [Compound 54, 2-[(2-Hydroxy-7,7-dimethyl-4-oxo-5,6,7,8-tetrahydro-4H-9-thia-1,4a-diaza-fluorene-3-carbonyl)-amino]-2-methyl-propionic acid], the fold induction at 200 µM is under 2.

`CC1(C)CCc2c(sc3nc(O)c(C(=O)N[C@H](C(=O)O)c4ccccc4)c(=O)n23)C1` [Compound 55, [(2-Hydroxy-7,7-dimethyl-4-oxo-5,6,7,8-tetrahydro-4H-9-thia-1,4a-diaza-fluorene-3-carbonyl)-amino]-phenyl-acetic acid, L-isomer]: the fold induction at 200 µM is under 2.

As to `O=C(O)CNC(=O)c1c(O)nc2sc3c(n2c1=O)CCC(NC(=O)c1ccccc1)C3` (stereo not shown) [Compound 56, [(7-Benzoylamino-2-hydroxy-4-oxo-5,6,7,8-tetrahydro-4H-9-thia-1,4a-diaza-fluorene-3-carbonyl)-amino]-acetic acid], the fold induction at 200 µM was under 2.

On to `O=C(O)CNC(=O)c1c(O)nc2oc3c(n2c1=O)CCCC3` [Compound 57, [(2-Hydroxy-4-oxo-5,6,7,8-tetrahydro-4H-9-oxa-1,4a-diaza-fluorene-3-carbonyl)-amino]-acetic acid], for which the fold induction at 200 µM is under 2.

On to `CC1CCc2c(sc3nc(O)c(C(=O)NCC(=O)O)c(=O)n23)C1` (stereo not shown) [Compound 58, [(2-Hydroxy-7-methyl-4-oxo-5,6,7,8-tetrahydro-4H-9-thia-1,4a-diaza-fluorene-3-carbonyl)-amino]-acetic acid], for which the fold induction at 200 µM fell in the range of 5 to 8.

For `CCCC1CCc2c(sc3nc(O)c(C(=O)NCC(=O)O)c(=O)n23)C1` (stereo not shown) [Compound 59, [(2-Hydroxy-4-oxo-7-propyl-5,6,7,8-tetrahydro-4H-9-thia-1,4a-diaza-fluorene-3-carbonyl)-amino]-acetic acid], the fold induction at 200 µM is under 2.

For `CC1(C)CCc2sc3nc(O)c(C(=O)NCC(=O)O)c(=O)n3c2C1` [Compound 60, [(2-Hydroxy-6,6-dimethyl-4-oxo-5,6,7,8-tetrahydro-4H-9-thia-1,4a-diaza-ftuorene-3-carbonyl)-amino]-acetic acid], the fold induction at 200 µM is 5 to 8.

With `CN(CC(=O)O)C(=O)c1c(O)nc2sc3c(n2c1=O)CCC(C)(C)C3` [Compound 61, [(2-Hydroxy-7,7-dimethyl-4-oxo-5,6,7,8-tetrahydro-4H-9-thia-1,4a-diaza-fluorene-3-carbonyl)-methyl-amino] -acetic acid], the fold induction at 200 µM was under 2.

For `O=C(O)CNC(=O)c1c(O)nc2sc3c(n2c1=O)CCC(c1ccccc1)C3` (stereo not shown) [Compound 64, [(2-Hydroxy-4-oxo-7-phenyl-5,6,7,8-tetrahydro-4H-9-thia-1,4a-diaza-fluorene-3-carbonyl)-amino]-acetic acid], the fold induction at 200 µM was under 2.

For the molecule `O=C(O)CNC(=O)c1c(O)nc2sc3c(n2c1=O)CCOC3` [Compound 65, [(2-Hydroxy-4-oxo-5,8-dihydro-4H,6H-7-oxa-9-thia-1,4a-diaza-fluorene-3-carbonyl)-amino]-acetic acid], the fold induction at 200 µM fell in the range of 5 to 8.

With `O=C(O)CNC(=O)c1c(O)nc2sc3c(n2c1=O)CCS(=O)(=O)C3` [Compound 67, [(2-Hydroxy-4,7,7-trioxo-5,6,7,8-tetrahydro-4H-71ambda*6*,9-dithia-1,4a-diaza-fluorene-3-carbonyl)-amino]-acetic acid], the fold induction at 200 µM was in the range of 2 to 4.

As for `O=C(O)CNC(=O)c1c(O)nc2sc3c(n2c1=O)CCC1(CC1)C3` [Compound 70, N-[(2'-hydroxy-4'-oxo-6',9'-dihydro-4'H,7'H-spiro[cyclopropane-1,8'-pyrimido[2,1-b][1,3]benzothiazol]-3'-yl)carbonyl]glycine], the fold induction at 200 µM fell in the range of 2 to 4.

Regarding `O=C(O)CNC(=O)c1c(O)nc2sc3c(n2c1=O)CCC(C(=O)O)C3` (stereo not shown) [Compound 72, 3-(Carboxymethyl-carbamoyl)-2-hydroxy-4-oxo-5,6,7,8-tetrahydro-4H-9-thia-1,4a-diaza-fluorene-7-carboxylic acid], the fold induction at 200 µM was under 2.
